Measurements as given in patent publication US20210393856A1, “COMPOSITIONS AND METHODS FOR REDUCING CALCIFICATION OF HEART VALVES” (Arizona Board of Regents on Behalf of the University of …, priority 2018, published 2021).
Blank lines part the entries; values can stand above or below the molecule they belong to.

Columns and labels:
mouse VIC = experiment: Osteogenic markers after mouse VIC incubation with adenosine receptor agonists; format: cell-based; conditions: mouse VIC / AVM cell cultures, FIG. 8
AVM cultures = experiment: Effects of adenosine and adenosine receptor agonists on Runx2 expression in AVM cultures (qPCR); format: cell-based, mouse; conditions: for expression of Runx2 compared to control cultures: up to 5 days, FIG. 12
From the text: Expression was normalized to GAPDH. Average of 3 independent repeats with SEM.
Runx2 expression increases in calcifying AVM cells with time in culture. Cells treated with either 2′-MeCCPA (A1 agonist) or PSB0777 (A2a agonist) up to 5 days.
Adenosine levels were confirmed using HPLC.

calcifying AVM cells = experiment: Runx2-II and Mgp in calcifying AVM cells in the presence of AMP; format: cell-based, mouse; conditions: FIG. 9
[1] = test system: Alkaline phosphatase (ALP); conditions: aortas incubated in osteogenic medium (Zukowska et al., 2017); cited from earlier work
valve cell cultures = experiment: Apoptosis measured by the ratio of Bax/Bcl2 in valve cell cultures; format: cell-based; conditions: 100 μM, over 5 days
From the text: (§1) Over 5 days, exposure to this concentration of ATP is apoptotic as measured by the ratio of Bax/Bcl2, and this may contribute to calcification.

AVM cell cultures = experiment: qPCR measurement of osteogenic marker expression by AVM cell cultures (ATP, PO4, CD73); format: cell-based, mouse
From the text: as §1

[2] = test system: calcifying AVM cell cultures; experiment: Runx2 isoform and osteogenic marker expression in calcifying AVM cell cultures with various treatments; format: cell-based, mouse
Protocol: Embryonic precursors of valvular interstitial cells (VICs) calcify when grown as tissue culture aggregates similar to micromass cultures of limb cells developed by (Ahrens et al., 1977). A mouse fetal VIC cell line (AVM cells) obtained from the Immortamouse (gift of Kai Jiao, UAB) were used to investigate calcification. These cells express a temperature sensitive Large T antigen and are immortal at 33° C. and revert to a valvular phenotype at 37° C.
The cell and organ culture models described above are used to study valve calcification by staining and expression of osteogenic markers. […] Both Runx2 isoform levels are elevated concomitant with calcification in vitro and in situ. To explore the relationship between identified regulators and markers of the osteogenic program in calcifying valve tissues, Runx2 isoform and osteogenic marker expression was measured in calcifying AVM cell cultures with various treatments. AVM cultures were treated with siRNA against Runx2-II, noggin (inhibitor of BMP), an anti-TGFβ antibody (against all three isoforms), and DAPT (inhibitor of Notch signaling). […] These indicate that Runx2 is a fairly central player in this calcification process but that Runx2 expression, in these cultures, is independent of TGFβ and BMP signaling.
For cell culture, human and porcine VICs and human valvular endothelial cells (VECs) are used. VICs are expanded from initial culture and stored as aliquots in liquid nitrogen. All experiments are performed with low passage number cells and each cell source is profiled by the UA Genetics Core to confirm and maintain the identity of each cell line. A mouse AV valve mesenchymal cell line (AVM) was obtained from Kai Jao (U. of Ala., Birmingham). These cells were from mice containing a temperature sensitive large T transgene (Immorta-Mouse) and the cells were grown at 33° C. to obtain an immortal cell line (Peng et al., 2017). The cells revert to a cushion/valve phenotype at 37° C. The micromass cultures of Solursh and colleagues (Ahrens et al.,1977) were recapitulated to observe calcification in vitro in this cell system. Calcium deposits became visible by von Kossa staining by 5 days in culture and prominent by day 12 (FIG. 3). […] Marker expression is consistent with a valve calcification phenotype and supports a central role for Runx2 in calcification (FIG. 2). For organ culture of intact valves, fresh aortic pig valves are obtained from the meat lab in the College of Agriculture and incubated on the surface of collagen gels. Experiments compare responses in intact aortic valves and VIC and VEC cell lines. […] Though 19 purinergic receptors are identified in Table 1, those P2Y and P2X receptors that are not found in valve tissues are excluded from further analysis.

micromass cultures = experiment: Concentration of adenosine in culture media of micromass cultures after adding recombinant CD73; format: cell-based; parameters: concentration of adenosine in the culture media: unit not given here; conditions: 1 μg/ml, approximately 100,000 cells in a dish

- induction of osteogenic markers (Runx2 and MGP) (mouse VIC): significant induction
- expression of Runx2 compared to control cultures (AVM cultures; 0.1 μM): reduced
Molecule: C[C@@]1(O)[C@H](O)[C@@H](CO)O[C@H]1n1cnc2c(NC3CCCC3)nc(Cl)nc21 [2′-MeCCPA]

Molecule: Nc1ncnc2c1ncn2[C@@H]1O[C@H](COP(=O)(O)O)[C@@H](O)[C@H]1O [AMP]
- Runx2-II and Mgp (calcifying AVM cells): reduced

Molecule: Nc1ncnc2c1ncn2[C@@H]1O[C@H](COP(=O)(O)OP(=O)(O)OP(=O)(O)O)[C@@H](O)[C@H]1O [ATP]
- Alkaline phosphatase (ALP) activity [1]: increased
- apoptosis as ratio of Bax/Bcl2 (valve cell cultures): apoptotic
- osteocalcin and osteopontin (AVM cell cultures; 100 μM added every 12 hr, at 5 days): large increase

Molecule: C[C@H](NC(=O)Cc1cc(F)cc(F)c1)C(=O)N[C@H](C(=O)OC(C)(C)C)c1ccccc1 [DAPT, reference compound]
- Runx2 expression [2]: reduced Runx2 expression
- expression of other markers (Twist1, Cbfβ, MGP) [2]: upregulated the other markers

Molecule: O=P(O)(O)O [PO4]
- osteogenic markers (AVM cell cultures; added to culture media, at 12 days, FIG. 13): increases

- induction of osteogenic markers (Runx2 and MGP) (mouse VIC): significant induction
- expression of Runx2 compared to control cultures (AVM cultures; 1 μM): reduced
Molecule: Nc1nc(SCCc2ccc(S(=O)(=O)O)cc2)nc2c1ncn2[C@@H]1O[C@H](CO)[C@@H](O)[C@H]1O [PSB0777]

Molecule: Nc1ncnc2c1ncn2[C@@H]1O[C@H](CO)[C@@H](O)[C@H]1O [adenosine]
- Alkaline phosphatase (ALP) activity [1]: reduced
- Runx2 expression (AVM cultures; AVM cultures at 0.35 μM, 3.5 μM and 50 μM adenosine, normalized to GAPDH, FIG. 11): inhibited at an exposure consistent with the high affinity A1 receptor

B1: noggin: inhibitor of BMP (protein, UniProt Q13253 28-232, looked up)
Noggin: QHYLHIRPAPSDNLPLVDLIEHPDPIFDPKEKDLNETLLRSLLGGHYDPGFMATSPPEDRPGGGGGAAGGAEDLAELDQLLRQRPSGAMPSEIKGLEFSEGLAQGKKQRLSKKLRRKLQMWLWSQTFCPVLYAWNDLGSRFWPRYVKVGSCFSKRSCSVPEGMVCKPSKSVHLTVLRWRCQRRGGQRCGWIPIQYPIISECKCSC
- Runx2 expression [2]: little effect
- expression of other markers (Twist1, Cbfβ, MGP) [2]: lesser effects

B2: recombinant CD73: ecto-5′-nucleotidase, converts AMP to adenosine (protein, UniProt P21589 27-549, looked up)
5'-nucleotidase: WELTILHTNDVHSRLEQTSEDSSKCVNASRCMGGVARLFTKVQQIRRAEPNVLLLDAGDQYQGTIWFTVYKGAEVAHFMNALRYDAMALGNHEFDNGVEGLIEPLLKEAKFPILSANIKAKGPLASQISGLYLPYKVLPVGDEVVGIVGYTSKETPFLSNPGTNLVFEDEITALQPEVDKLKTLNVNKIIALGHSGFEMDKLIAQKVRGVDVVVGGHSNTFLYTGNPPSKEVPAGKYPFIVTSDDGRKVPVVQAYAFGKYLGYLKIEFDERGNVISSHGNPILLNSSIPEDPSIKADINKWRIKLDNYSTQELGKTIVYLDGSSQSCRFRECNMGNLICDAMINNNLRHTDEMFWNHVSMCILNGGGIRSPIDERNNGTITWENLAAVLPFGGTFDLVQLKGSTLKKAFEHSVHRYGQSTGEFLQVGGIHVVYDLSRKPGDRVVKLDVLCTKCRVPSYDPLKMDEVYKVILPNFLANGGDGFQMIKDELLRHDSGDQDINVVSTYISKMKVIYPAVEGRIKFS
- effects of exogenous ATP (osteogenic markers, apoptosis) (AVM cell cultures; exogenous enzyme added with 100 μM ATP): reduced
- increase of adenosine concentration in the culture media (micromass cultures): 5 fold
- concentration of adenosine in the culture media (micromass cultures; from 1.7 without enzyme): 8.7
